Measured values taken from patent US20230277582A1, “TREATMENT OF PRIMARY AND/OR SECONDARY LUNG TUMORS USING GASEOUS NITRIC OXIDE INHALATION” (Beyond Air, Inc., priority 2020, published 2023).
Where two headings read alike, the source gives them in different places.

Legend:
[1] = test system: healthy dogs; experiment: Safety study of intermittent NO inhalation in healthy dogs; assay type: in vivo, dog; conditions: 250-400 ppm NO, 30 days
Description: (§1) The effect of intermittent inhalation of NO at a concentration of 250-400 ppm was tested for 30 days in healthy dogs and for 12 days in healthy rats.

[2] = test system: healthy rats; experiment: Safety study of intermittent NO inhalation in healthy rats; assay type: in vivo, rat; conditions: 250-400 ppm NO, 12 days
Description: as §1

[3] = test system: CT26 colon cancer cells; experiment: In vitro NO treatment, cell viability by XTT assay, CT26; assay type: cell-based, mouse
Description: (§2) 10,000-20,000 cells from a cancer cell line were plated onto a 96-well plate. After an overnight incubation at 37° C. and 5% CO2, the cell culture medium was removed, and the plate was placed inside an exposure chamber made of acrylic glass, which was closed and sealed with paraffin wax tape. A gas delivery line was inserted from the top of the chamber. NO supplied from 800 ppm NO cylinders, as well as air and oxygen, were delivered to the chamber at a gas flow rate of 1 liter per minute. NO was diluted to the indicated concentration and the final oxygen concentration inside the chamber was adjusted to about 21%, to avoid cell death due to lack of oxygen. Gas exposure lasted for the indicated time period, for one to seven exposure cycles. Gas exchange during this time was permitted via an outlet hole located close to the bottom of the chamber. Cancer cells exposed to air served as a control group. Cell viability was determined using an XTT (2,3-bis-(2-methoxy-4-nitro-5-sulfophenyl)-2H-tetrazolium-5-carboxanilide) assay, whereby conversion of the XTT by viable cells to the corresponding formazan dye was quantified by spectrophotometry.
CT26 colon cancer cells (a mouse colon cancer line) were grown in 100 μl RPMI (Roswell Park Memorial Institute medium)-based tissue culture medium, supplemented with 1% streptomycin-penicillin and 10% fetal bovine serum, and plated 1 day before exposure to NO in 10 ml RPMI-based tissue culture medium; and then exposed to 400 ppm NO for 1 hour, or to 200 ppm NO for one or more cycles of 15 minutes (separated by 30 minutes of rest at 37° C.), using the procedures described hereinabove. Immediately after each exposure, 100 μl of the abovementioned supplemented RPMI-based tissue culture medium was added to each well and plated were stored at 37° C. and 5% CO2.
CT26 colon cancer cells were exposed to 1 μM of the chemotherapeutic agent 5-fluorouracil (5FU), in addition to 200 ppm NO for 30 minutes, using the procedures described hereinabove, except that after overnight incubation at 37° C. and 5% CO2, the 5FU was added to the cell culture medium, and the cells were subjected to a second overnight incubation prior to being placed within the exposure chamber, as described therein.
In another experiment, CT26 cells were exposed to 0.5-50 μM 5FU and 4 cycles of 200 ppm NO for 10 minutes (separated by 30 minutes of rest at 37° C.), using the procedures described hereinabove, except that the 5FU was added immediately after the last exposure to NO (or air), followed by incubation for about 24 hours.

[4] = test system: LLC1 lung cancer cells; experiment: In vitro NO treatment, cell viability by XTT assay, LLC1; assay type: cell-based; conditions: Mus musculus, read-out: LLC1 cells not viable
Description: as §2
Furthermore, LLC1 lung cancer cells (a mouse lung cancer line) were exposed to 200 ppm NO for 15 or 30 minutes, using the procedures described hereinabove.

[5] = test system: S. aureus; conditions: 200 ppm gNO; cited from earlier work
[6] = test system: human fibroblast, keratinocyte, endothelial, monocyte and macrophage cells; conditions: 200 ppm gNO; cited from earlier work

SMILES | macroscopic or microscopic effect of NO inhalation [1] | macroscopic or microscopic effect of NO inhalation [2] | CT26 cell viability ([3]; 400 ppm NO for 1 hour (FIG. 1)) | cytotoxicity at 200 ppm ([3]; Mus musculus, CT26, 0.5 h, read-out: reduction of CT26 cell viability) [%] | viability at 200 ppm ([3]; Mus musculus, CT26, read-out: CT26 cell viability (decreased to)) [%] | CT26 cell viability ([3]; seven cycles of 15 minutes, 200 ppm NO, compared to four cycles (FIG. 2C)) | CT26 cell viability ([3]; single 15 minute exposure to 200 ppm NO (FIG. 2A)) | cytotoxicity at 200 ppm ([4]; LLC1, 0.25 h, 200 ppm NO for 15 minutes (FIG. 3)) [%] | cytotoxicity at 200 ppm ([4]; LLC1, 0.5 h, 200 ppm NO for 30 minutes (FIG. 3)) [%] | S. aureus burden in rabbit wound model [5] | cytotoxicity to human cells in culture [6] | effect on CT26 cells (viability) ([3]; 1 μM 5FU alone, overnight incubation (FIG. 4))
[N]=O [NO, nitric oxide] | No macroscopic or microscopic effect | No macroscopic or microscopic effect | not viable | 51 | ~40 | did not produce an additional reduction in viability | little effect | 41 | 65 | reduced S. aureus burden | without being cytotoxic | –
O=c1[nH]cc(F)c(=O)[nH]1 [5FU, 5-fluorouracil] | – | – | – | – | – | – | – | – | – | – | – | little effect
